US8759539B2, “Substituted bicyclic amines for the treatment of diabetes” (Merck Sharp & Dohme Corp., priority 2008, dated 2014)

Columns and labels:
SSTR5 [1] = biological target: T1, SSTR5 (Homo sapiens, UniProt P35346); test: Functional assay to assess the inhibition of SSTR5 mediated cyclic AMP production; type: cell-based, human or mouse; conditions: SSTR5 stable CHO cells, 5 μM FSK, Lance cAMP assay kit, eight-point titration
Experimental: Functional Assay to Assess the Inhibition of SSTR5Mediated Cyclic AMP Production:
The effects of compounds that bind to human and murine SSTR5 with various affinities on the functional activity of the receptor were assessed by measuring cAMP production in the presence of Forskolin (FSK) alone or FSK plus SS-28 in SSTR5 expressing CHO cells. FSK acts to induce cAMP production in these cells by activating adenylate cyclases, whereas SS-28 suppresses cAMP production in the SSTR5 stable cells by binding to SSTR5 and the subsequent inhibition of adenylate cyclases via an alpha subunit of […] (Gαi).
To measure the agonism activity of the compounds, human or mouse SSTR5 stable CHO cells were pre-incubated with the compounds for 15 min, followed by a one-hour incubation of the cells with 5 μM FSK (in the continuous presence of the compounds). The amount of cAMP produced during the incubation was quantified with the Lance cAMP assay kit (PerkinElmer, CA) according to the manufacturer's instruction, as well as, an IC50 value was obtained by an eight-point titration.
Target sequence in this assay (P35346 whole entry): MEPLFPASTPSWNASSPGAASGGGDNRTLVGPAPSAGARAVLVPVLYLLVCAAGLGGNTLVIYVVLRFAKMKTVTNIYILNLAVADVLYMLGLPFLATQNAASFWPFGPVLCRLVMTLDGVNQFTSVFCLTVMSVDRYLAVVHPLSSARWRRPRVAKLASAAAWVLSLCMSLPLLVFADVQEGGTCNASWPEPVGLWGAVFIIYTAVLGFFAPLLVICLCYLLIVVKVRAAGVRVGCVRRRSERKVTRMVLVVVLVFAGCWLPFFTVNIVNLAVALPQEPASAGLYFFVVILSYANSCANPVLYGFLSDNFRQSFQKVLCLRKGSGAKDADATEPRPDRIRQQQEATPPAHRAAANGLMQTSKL

SSTR5 [2] = biological target: T1, SSTR5; test: SSTR5 binding (R5 Bnd)
Target sequence in this assay (P35346 whole entry, species assumed): as the sequence (P35346 whole entry) above

SMILES	IC50 (SSTR5 [1]) [nM]	IC50 (SSTR5 [2]) [nM]
CCOc1cc(CN2CC[C@H]3C(NC(=O)OCc4ccccc4)CC[C@H]32)cc(OCC)c1-c1ccc(F)cc1 (stereo partly shown) [Example 97]	32.4	1.44
CCOc1cc(CN2CC[C@H]3C(NC(=O)c4cncnc4)CC[C@H]32)cc(OCC)c1-c1ccc(F)cc1 (stereo partly shown) [Example 75]	386	148
CCOc1cc(CN2CC[C@H]3C(NC(=O)c4cccc(C)c4)CC[C@H]32)cc(OCC)c1-c1ccc(F)cc1 (stereo in doubt) [Example 81]	70.1	5.01
CCOc1cc(CN2CC[C@H]3C(NC(=O)c4ccc5c(c4)nnn5C(C)C)CC[C@H]32)cc(OCC)c1-c1ccc(F)cc1 (stereo partly shown) [Example 72]	59.5	4.65
CCOc1cc(CN2CC[C@H]3C(NS(=O)(=O)c4cccc(C)c4)CC[C@H]32)cc(OCC)c1-c1ccc(F)cc1 (stereo partly shown) [Example 101]	263	12.1
CCOc1cc(CN2CC[C@H]3C(Nc4nc5cc(S(=O)(=O)/N=C/N(C)C)ccc5o4)CC[C@H]32)cc(OCC)c1-c1ccc(F)cc1 (stereo partly shown) [Example 100]	38.7	2.07
Cc1cncc(C(=O)N[C@H]2CC[C@@H]3[C@H]2CCN3Cc2cccc(-c3ccccc3)c2)c1 [Example 19]	1220	124
CCOc1cc(CN2CC[C@H]3C(NC(=O)c4cccc(C)c4)CC[C@H]32)cc(OCC)c1-c1ccc(F)cc1 (stereo in doubt) [Example 63]	32.6	1.72

Results, then the compound that gave them:

IC50 (SSTR5 [1]) [nM]	IC50 (SSTR5 [2]) [nM]	SMILES
5.21	1.29	CCOc1cc(CN2CC[C@H]3C(Nc4nc5ccc(C(=O)O)cc5o4)CC[C@H]32)cc(OCC)c1-c1ccc(F)cc1 (stereo partly shown) [Example 79]
46.2	5.45	CCOc1cc(CN2CC[C@H]3C(NC(=O)c4ccc(C)nc4)CC[C@H]32)cc(OCC)c1-c1ccc(F)cc1 (stereo partly shown) [Example 60]
122	15.8	CCOc1cc(CN2CC[C@H]3C(NC(=O)c4cnc5cc(Cl)ccc5c4O)CC[C@H]32)cc(OCC)c1-c1ccc(F)cc1 (stereo partly shown) [Example 61]
252	7.47	CCOc1cc(CN2CC[C@H]3C(Nc4nc5ccc(F)cc5o4)CC[C@H]32)cc(OCC)c1-c1ccc(F)cc1 (stereo partly shown) [Example 83]
85.7	4.99	CCOc1cc(CN2CC[C@H]3C(NC(=O)Nc4cccc(C)c4)CC[C@H]32)cc(OCC)c1-c1ccc(F)cc1 (stereo partly shown) [Example 90]
137	53.5	CCOc1cc(CN2CC[C@H]3C(NC(=O)c4ccc5[nH]c(C)nc5c4)CC[C@H]32)cc(OCC)c1-c1ccc(F)cc1 (stereo partly shown) [Example 69]
